Measured values published in patent US12195427B2, “MASP-2 inhibitors and methods of use” (priority 2018, dated 2025).

Target: MASP-2 CCP2-SP (Homo sapiens (Human), UniProt O00187)
Test: MASP-2 co-crystallization, X-ray crystallography and structure analysis (H-bonds, van der Waals contacts);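 for Ligand-pharmacophore element distance, pharmacophore element C2: distance from averaged pharmacophore element to bound ligand; missing value means element absent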;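 for Ligand-pharmacophore element distance, pharmacophore element C3: distance from averaged pharmacophore element to bound ligand; missing value means element absent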;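 for Ligand-pharmacophore element distance, pharmacophore element C4: distance from averaged pharmacophore element to bound ligand; missing value means element absent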;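 for Ligand-pharmacophore element distance, pharmacophore element C5: distance from averaged pharmacophore element to bound ligand; missing value means element absent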
Design: van der Waals contact distance, MASP-2 HIS 483 atom CD2 / van der Waals contact distance, MASP-2 HIS 483 atom NE2 / van der Waals contact distance, SER 654 C to compound atom / van der Waals contact distance, SER 654 O to compound atom / van der Waals contact distance, TRP 655 C to compound atom / van der Waals contact distance, MASP-2 GLY 528 atom CA / van der Waals contact distance TRP 655 atom CZ3 / van der Waals contact distance TRP 655 atom N / van der Waals contact distance TRP 655 atom CE3 / van der Waals contact distance GLY 656 atom C / van der Waals contact distance GLY 656 atom CA / van der Waals contact distance GLY 656 atom O / van der Waals contact distance, MASP-2 TYR 607 atom CD1 / van der Waals contact distance, MASP-2 PRO 606 atom O / d(C3,CA1) / d(CA1,N1)2 / d(H4,O1) / d(H4,O2) / d(O1,O2) / d(CA1,O2) / d(CA6,O1) / d(CA6,O2) / d(CA1,C5) / d(O2,H3) / d(N2,C2) / d(CA5,N2) / d(N2,C4) / d(N2,C6) / d(N2,CA3) / d(N2,O3) / d(O4,H2): unit not given beside the values
Conditions: for Ligand-pharmacophore element distance, pharmacophore element C2 / Ligand-pharmacophore element distance, pharmacophore element C3 / Ligand-pharmacophore element distance, pharmacophore element C4 / Ligand-pharmacophore element distance, pharmacophore element C5 / Ligand-pharmacophore element distance, pharmacophore element C6 / Ligand-pharmacophore element distance, pharmacophore element C7 / Ligand-pharmacophore element distance, pharmacophore element CA1 / Ligand-pharmacophore element distance, pharmacophore element CA2 / Ligand-pharmacophore element distance, pharmacophore element CA3 / Ligand-pharmacophore element distance, pharmacophore element CA4 / Ligand-pharmacophore element distance, pharmacophore element CA5 / Ligand-pharmacophore element distance, pharmacophore element CA6: Table A4-1; for Pharmacophore torsion angle a(O1, O2, N2, CA5): Table A7-2; for Pharmacophore protein distance to MET_658 (first MET_658 column) / Pharmacophore protein distance to MET_658 (second MET_658 column) / Pharmacophore protein distance to GLY_528 / Pharmacophore protein distance to PHE_529 / Pharmacophore protein distance to PRO_608 / Pharmacophore protein distance to SER_611 / Pharmacophore protein distance to TRP_655: Table A8-6, nearest protein atom in cell to the left; for Pharmacophore protein distance to MET_658 (first MET_658 column): 6th residue column; for Pharmacophore protein distance to MET_658 (second MET_658 column): 9th residue column; for Pharmacophore protein distance to TRP_655: pharmacophore elements C6, CA3, O3, H1
Summary of the method: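 Inhibitor complexes were obtained by soaking crystals of E. coli-expressed human MASP-2 CCP2-SP constructs, then flash-cooling in liquid nitrogen. Structures solved by molecular replacement (1Q3X search model) from synchrotron diffraction; where several poses existed, only one was analyzed, and nonbonded contacts listed can include H-bonds.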

[1] = Table A5-1 pharmacophore: distance between elements, S2/S1 region
[2] = Table A5-2 pharmacophore distance, S3/S4 region
[3] = Table A7-1, between pharmacophore elements of the bound compound
[4] = between pharmacophore elements of the bound compound

Chain of MASP-2 CCP2-SP (O00187 445-686): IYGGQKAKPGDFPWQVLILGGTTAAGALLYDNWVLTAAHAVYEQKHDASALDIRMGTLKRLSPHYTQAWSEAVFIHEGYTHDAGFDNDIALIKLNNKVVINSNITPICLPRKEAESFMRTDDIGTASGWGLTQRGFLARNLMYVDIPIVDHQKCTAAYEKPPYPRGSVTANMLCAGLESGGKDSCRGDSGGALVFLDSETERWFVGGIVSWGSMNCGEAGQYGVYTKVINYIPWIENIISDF
Chain of MASP-2 CCP2-SP (O00187 364-432 partner): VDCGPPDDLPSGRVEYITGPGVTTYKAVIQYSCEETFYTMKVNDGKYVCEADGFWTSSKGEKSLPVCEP

SMILES: C[C@H](NC(=O)[C@H]1C[C@@H](c2ccccc2)CN1)C(=O)NCc1ccc2c(N)nccc2c1.Cl.Cl [1089_B]
- Ligand-pharmacophore element distance, pharmacophore element C2: 0
- Ligand-pharmacophore element distance, pharmacophore element C3: 0
- Ligand-pharmacophore element distance, pharmacophore element C4: 0
- Ligand-pharmacophore element distance, pharmacophore element C5: 0
- Ligand-pharmacophore element distance, pharmacophore element C6: 0
- Ligand-pharmacophore element distance, pharmacophore element C7: 0
- Ligand-pharmacophore element distance, pharmacophore element CA1: 0.99
- Ligand-pharmacophore element distance, pharmacophore element CA2: 0
- Ligand-pharmacophore element distance, pharmacophore element CA3: 0
- Ligand-pharmacophore element distance, pharmacophore element CA4: 0
- Ligand-pharmacophore element distance, pharmacophore element CA5: 1.16
- Ligand-pharmacophore element distance, pharmacophore element CA6: 0
- d(CA1,O1) [1]: 5.68
- d(CA1,O2) [1]: 5.17
- d(H4,O1) [1]: 3.14
- d(H4,O2) [1]: 3.69
- d(O1,O2) [1]: 3.33
- d(CA5,N2) [2]: 5.10
- d(O2,H3) [2]: 5.91
- d(O2,N2) [2]: 2.70
- a(CA1, O1, O2) (Table A6-1 pharmacophore angle): 99.20
- a(O1, O2, H4) (Table A6-1 pharmacophore angle): 122.31
- a(O1, O2, H3) (Table A6-2 pharmacophore angle): 152.83
- a(O1, O2, N2) (Table A6-2 pharmacophore angle): 141.07
- Pharmacophore torsion angle a(H4, O1, O2, H3) [3]: 89.27
- Pharmacophore torsion angle a(H4, O1, O2, N2) [3]: −178.39
- Pharmacophore torsion angle a(O1, H4, O2, CA1) [3]: −94.63
- Pharmacophore torsion angle a(O1, O2, N2, CA5) [4]: 133.38
- Pharmacophore protein distance to MET_658 (first MET_658 column): 2.61
- Pharmacophore protein distance to MET_658 (second MET_658 column): 3.31
- Pharmacophore protein distance to GLY_528: 3.59
- Pharmacophore protein distance to PHE_529: 2.81
- Pharmacophore protein distance to PRO_608: 3.90
- Pharmacophore protein distance to SER_611: 2.79
- Pharmacophore protein distance to TRP_655: 3.57

SMILES: C[C@H](NC(=O)[C@H]1Cc2c([nH]c3ccccc23)CN1)C(=O)NCc1ccc(C(=N)N)cc1.Cl.Cl [1097_2]
- Ligand-pharmacophore element distance, pharmacophore element C2: 0.72
- Ligand-pharmacophore element distance, pharmacophore element C3: 0
- Ligand-pharmacophore element distance, pharmacophore element C4: 0
- Ligand-pharmacophore element distance, pharmacophore element C5: 0
- Ligand-pharmacophore element distance, pharmacophore element C6: 0
- Ligand-pharmacophore element distance, pharmacophore element C7: 0
- Ligand-pharmacophore element distance, pharmacophore element CA1: 0.32
- Ligand-pharmacophore element distance, pharmacophore element CA2: 0
- Ligand-pharmacophore element distance, pharmacophore element CA3: 0
- Ligand-pharmacophore element distance, pharmacophore element CA4: 0
- Ligand-pharmacophore element distance, pharmacophore element CA5: 1.1
- Ligand-pharmacophore element distance, pharmacophore element CA6: 0
- d(CA1,N1) [1]: 3.52
- d(CA1,O1) [1]: 4.35
- d(CA1,O2) [1]: 4.09
- d(H4,O1) [1]: 4.74
- d(H4,O2) [1]: 4.28
- d(O1,O2) [1]: 3.33
- d(CA5,N2) [2]: 4.50
- d(N2,C2) [2]: 1.42
- d(O2,H3) [2]: 4.29
- d(O2,N2) [2]: 2.81
- a(CA1, O1, O2) (Table A6-1 pharmacophore angle): 109.11
- a(O1, O2, H4) (Table A6-1 pharmacophore angle): 137.06
- A(N1, CA1, O1) a) (Table A6-1 pharmacophore angle, all compounds with protonatable center N1 except Methyl-amino-pyridine): 163.92
- a(O1, O2, H3) (Table A6-2 pharmacophore angle): 153.30
- a(O1, O2, N2) (Table A6-2 pharmacophore angle): 137.12
- a(O2, N2, C2) (Table A6-2 pharmacophore angle): 128.45
- Pharmacophore torsion angle a(H4, O1, O2, H3) [3]: 91.00
- Pharmacophore torsion angle a(H4, O1, O2, N2) [3]: 129.42
- Pharmacophore torsion angle a(N1, CA1, O2, H4) [3]: −142.69
- Pharmacophore torsion angle a(O1, H4, O2, CA1) [3]: −71.28
- Pharmacophore torsion angle a(O1, O2, N2, C2) [3]: 125.27
- Pharmacophore torsion angle a(O1, O2, N2, CA5) [4]: 137.08
- Pharmacophore protein distance to MET_658 (first MET_658 column): 2.55
- Pharmacophore protein distance to MET_658 (second MET_658 column): 3.13
- Pharmacophore protein distance to GLY_528: 3.52
- Pharmacophore protein distance to PHE_529: 3.02
- Pharmacophore protein distance to PRO_608: 3.56
- Pharmacophore protein distance to SER_611: 3.29
- Pharmacophore protein distance to TRP_655: 3.09
